Read-outs that look alike come from different tables or passages of the source. Numbered stars: 1 amine (or outer) side, 2 acyl side, 3 side chain; on linkers, the order of the positions; unused ones are H or OH. Bridge positions count the residues as written; N and C are the ends. Square brackets hold non-standard residues; d marks the D form. Peptide text beside a SMILES is read from it. * marks the point of attachment. X1 = CN1C[C@H](CSCCN(CCSC[C@@H]2C[C@@H]3c4cccc5[nH]cc(c45)C[C@H]3N(C)C2)[C@H](CCCCN[*:2])C(=O)[*:1])C[C@@H]2c3cccc4[nH]cc(c34)C[C@H]21; X2 = CN1C[C@H](CSCC(=O)*)C[C@@H]2c3cccc4[nH]cc(c34)C[C@H]21; 4Pal = N[C@@H](Cc1ccncc1)C(=O)O
Assays:
hSSTR2 [1] = biological target: T1, hSSTR2 (Homo sapiens, UniProt P30874); assay: Somatostatin receptor radioligand binding assay (hSSTR2);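 further: radioligand displacement on membranes of CHO-K1 cells stably transfected with human SSTR2, specific binding taken as total minus binding left with 1000 nM SRIF-14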
T1 construct: host or cells: 'Cells expressing hSSTR2'
T1 sequence (P30874 whole entry): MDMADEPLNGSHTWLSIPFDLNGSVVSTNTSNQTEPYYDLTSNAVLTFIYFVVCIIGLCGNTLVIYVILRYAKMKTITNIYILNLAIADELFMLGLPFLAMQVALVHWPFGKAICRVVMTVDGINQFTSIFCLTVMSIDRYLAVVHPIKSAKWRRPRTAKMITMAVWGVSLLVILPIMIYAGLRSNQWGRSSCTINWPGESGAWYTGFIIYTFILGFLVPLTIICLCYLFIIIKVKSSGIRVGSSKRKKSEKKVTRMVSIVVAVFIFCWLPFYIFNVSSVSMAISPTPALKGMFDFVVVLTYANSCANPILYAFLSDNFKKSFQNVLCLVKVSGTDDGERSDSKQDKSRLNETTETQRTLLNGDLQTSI
Experimental: (§1) The affinities of a test compound for the human somatostatin receptors were determined by radioligand binding assays in CHO-K1 cells stably transfected with each of the human somatostatin receptor subtypes, hSSTR1-5. […] Clonal cell lines stably expressing each of the somatostatin receptors were obtained by transfection into CHO-K1 cells (ATCC) and subsequently selected with culture media containing 0.8 mg/mL of G418 (Life Technologies).
(§2) Membranes for in vitro receptor binding assays were obtained by the following procedures. […] The supernatant containing the plasma membranes was centrifuged at 100,000 x g for 30 minutes and the pellet was resuspended in buffer containing 20 mM glycine-glycine, 1 mM MgCl2, 250 mM sucrose, pH 7.2, for storage at -80°C.
(§3) For the SSTR1, 2 and 5 assays, membranes and various concentrations of test compounds were incubated in 96-well plates for 60 minutes at 25°C with 0.05 nM [^125I-Tyr^11]-SRIF-14 (for hSSTR1; PerkinElmer Life Science), 0.05 nM [^125I-Tyr]-seglitide (for hSSTR2; PerkinElmer Life Science) or 0.05 nM [^125I-Tyr]-[DPhe-cyclo(Cys-Tyr-DTrp-Lys-Val-Cys)-Thr-NH2] (for hSSTR5; PerkinElmer Life Science) in 50 mM HEPES, 0.2% BSA, 0.1 mM MgCl2, pH 7.5.
(§4) The incubations were terminated by rapid filtration through GF/C glass microfiber filter plates (pre-wet with 0.3% polyethyleneimine and 0.1 % BSA) using a 96-well cell harvester (Brandel). Plates were washed six times with 1 mL/well aliquots of ice-cold buffer containing 50 mM Tris buffer, pH 7.7. Specific binding was defined as the total radioligand bound minus the bound in the presence of 1000 nM SRIF-14.

hDRD2 [2] = biological target: T2, hDRD2 (Homo sapiens, UniProt P14416); assay: biochemical; format: binding; design: expressed in transfected cells; host or cells: CHO-K1, pcDNA3.1/GS, zeocin-selected clonal line; membranes
T2 sequence (P14416 whole entry): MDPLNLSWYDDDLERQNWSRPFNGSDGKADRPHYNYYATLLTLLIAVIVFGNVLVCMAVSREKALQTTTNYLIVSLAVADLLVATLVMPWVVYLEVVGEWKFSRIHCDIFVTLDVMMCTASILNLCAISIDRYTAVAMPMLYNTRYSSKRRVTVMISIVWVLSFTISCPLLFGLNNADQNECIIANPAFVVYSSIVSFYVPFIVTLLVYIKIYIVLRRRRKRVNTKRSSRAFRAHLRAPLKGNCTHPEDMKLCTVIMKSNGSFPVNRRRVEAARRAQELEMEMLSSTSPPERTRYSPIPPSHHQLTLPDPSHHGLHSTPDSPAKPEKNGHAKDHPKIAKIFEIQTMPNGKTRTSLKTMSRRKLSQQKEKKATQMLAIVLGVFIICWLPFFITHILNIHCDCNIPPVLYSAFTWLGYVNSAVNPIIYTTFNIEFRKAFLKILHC

hSSTR2 [3] = biological target: T1, hSSTR2; assay: Intracellular calcium mobilization assay (FLIPR Calcium 4), hSSTR2; format: cell-based; details: for improvement in EC50 over Reference Compound A: p value (Student's t-test, one-tailed) < 0.05;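 on all read-outs here: agonist activity measured in cells expressing hSSTR2, seeded in 384-well plates, loaded with Calcium 4 dye, read-out as rise in intracellular calcium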
Experimental: The ability of select compounds according to the present invention to activate hSSTR2 and hDRD2 was determined by the intracellular calcium mobilization assay using FLIPR Calcium 4 assay kit (Molecular Devices).
Cells expressing hSSTR2 or hDRD2 were plated in 384-well microplates in tissue culture media and incubated for 16-24 hours at 37°C in a humidified atmosphere with 5% CO2. Medium was replaced by loading buffer containing Hank's buffered saline, 20 mM HEPES, 2.5 mM probenecid and Calcium 4 dye, and the plates were incubated at 37°C for 60 minutes.

hDRD2 [4] = biological target: T2, hDRD2; assay: cell-based; design: host or cells: 'Cells expressing hDRD2'; details: for Emax: read-out: hDRD2 %Emax ± SEM
hSSTR5 = biological target: T3, hSSTR5 (Homo sapiens, UniProt P35346); assay: Somatostatin receptor radioligand binding assay (hSSTR5); details: CHO-K1 cell membranes; 0.05 nM [125I-Tyr]-[DPhe-cyclo(Cys-Tyr-DTrp-Lys-Val-Cys)-Thr-NH2]; 60 minutes at 25°C; read-out: hSSTR5 Ki (nM) ± SEM
T3 construct: expressed in transfected cells; host or cells: CHO-K1 (ATCC), pcDNA3.1, G418-selected clonal line; membranes
T3 sequence (P35346 whole entry): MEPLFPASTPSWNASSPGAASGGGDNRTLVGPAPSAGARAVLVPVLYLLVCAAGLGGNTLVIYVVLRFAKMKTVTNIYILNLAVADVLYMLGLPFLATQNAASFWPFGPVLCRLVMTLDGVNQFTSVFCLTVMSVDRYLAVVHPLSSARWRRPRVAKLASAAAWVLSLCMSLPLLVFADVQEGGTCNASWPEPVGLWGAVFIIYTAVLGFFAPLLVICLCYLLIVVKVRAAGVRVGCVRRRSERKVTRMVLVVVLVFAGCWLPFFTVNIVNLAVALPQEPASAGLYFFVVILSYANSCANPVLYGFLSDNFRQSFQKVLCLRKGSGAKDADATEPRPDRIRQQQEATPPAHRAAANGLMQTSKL
Experimental: as §1, §2, §3, §4

hSSTR1 = biological target: T4, hSSTR1 (Homo sapiens, UniProt P30872); assay: Somatostatin receptor radioligand binding assay (hSSTR1)
T4 construct: expressed in transfected cells; host or cells: CHO-K1 (ATCC), pcDNA3.1, G418-selected clonal line; membranes
T4 sequence (P30872 whole entry): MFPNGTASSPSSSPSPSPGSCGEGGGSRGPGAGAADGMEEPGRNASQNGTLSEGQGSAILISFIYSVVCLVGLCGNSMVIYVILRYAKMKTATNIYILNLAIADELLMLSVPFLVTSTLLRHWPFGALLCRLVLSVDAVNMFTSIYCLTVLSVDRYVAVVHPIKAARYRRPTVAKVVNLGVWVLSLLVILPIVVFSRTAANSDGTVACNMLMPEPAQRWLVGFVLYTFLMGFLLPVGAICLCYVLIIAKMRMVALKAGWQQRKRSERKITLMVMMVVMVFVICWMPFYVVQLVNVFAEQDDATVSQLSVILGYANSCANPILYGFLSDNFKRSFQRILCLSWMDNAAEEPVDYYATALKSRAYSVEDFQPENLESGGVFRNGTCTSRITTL
Experimental: as §1, §2, §3, §4

[5] = CHO-K1 cell membranes, 0.05 nM [125I-Tyr]-seglitide, 60 minutes at 25°C, read-out: hSSTR2 Ki (nM) ± SEM
[6] = CHO-K1 cell membranes, […] [3H]-spiperone, 60 minutes at 25°C, read-out: hDRD2 Ki (nM) ± SEM
[7] = CHO-K1 cell membranes, 0.05 nM [125I-Tyr11]-SRIF-14, 60 minutes at 25°C, read-out: hSSTR1 Ki (nM) ± SEM
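Wherever Emax is given: agonist activity at human DRD2 in DRD2-expressing cells, read as intracellular calcium mobilization with a FLIPR Calcium 4 fluorescent dye.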

Row | Structure (SMILES) | Ki (hSSTR2 [1]) [nM] | Ki (hDRD2 [2]) [nM] | EC50 (hSSTR2 [3]) [nM] | EC50 (hDRD2 [4]) [nM] | Emax (hDRD2 [4]) [%] | Ki (hSSTR5) [nM] | Ki (hSSTR1) [nM] | Ki (hSSTR2 [1]; [5]) [nM] | Ki (hDRD2 [2]; [6]) [nM] | improvement in EC50 over Reference Compound A (hSSTR2 [3]; receptor not named) | EC50 value lower than that for Reference Compound A (hSSTR2 [3]; ratio to Reference Compound A, receptor not named, figures fit hSSTR2) | Ki (hSSTR1; [7]) [nM] | improvement in EC50 and/or %Emax over Reference Compound B (hSSTR2 [3]; receptor not named)
1 | C[C@@H](O)[C@@H]1NC(=O)[C@H](CCCCN)NC(=O)[C@@H](Cc2c[nH]c3ccccc23)NC(=O)[C@H](Cc2ccncc2)NC(=O)[C@H](Cc2ccccc2)NC(=O)[C@H](CCCNC(=N)N)NC(=O)[C@H](NC[C@H](Cc2ccc(O)cc2)NC(=O)C[S+]([O-])C[C@@H]2C[C@@H]3c4cccc5[nH]cc(c45)C[C@H]3N(C)C2)CCCCNC(=O)[C@H](Cc2ccccc2)NC1=O (stereo partly drawn) [Compound 15, Dop1(SO)-Tyr-psi(CH2NH)-cyclo(DLys-Arg-Phe-4Pal-DTrp-Lys-Thr-Phe)] | 0.02 ± 0.01 | 149 ± 11.3 | 1.6 ± 0.3 | 7.4 ± 0.4 | 94.6 ± 0.8 | 0.08 | 64.4 |  |  |  |  |  | 
2 | C[C@@H](O)[C@@H]1NC(=O)[C@H](CCCCN)NC(=O)[C@@H](Cc2c[nH]c3ccccc23)NC(=O)[C@H](Cc2ccncc2)NC(=O)[C@H](Cc2ccccc2)NC(=O)[C@H](CCCNC(=N)N)NC(=O)[C@H](NC(=O)CSC[C@@H]2C[C@@H]3c4cccc5[nH]cc(c45)C[C@H]3N(C)C2)CCCCNC(=O)[C@H](Cc2ccccc2)NC1=O [Compound 24, Dop1-cyclo(DLys-Arg-Phe-4Pal-DTrp-Lys-Thr-Phe)] (X2-[dK]RF[4Pal][dW]KTF; lactam 1-C) |  |  |  |  | 87.8 ± 4 | 2.39 |  | 0.08 ± 0.01 | 175 ± 25.6 | statistically significant improvement in EC50 | about 9 fold | 47.7 ± 30.7 | 
3 | C[C@@H](O)[C@@H]1NC(=O)[C@H](CCCCN)NC(=O)[C@@H](Cc2c[nH]c3ccccc23)NC(=O)[C@H](Cc2ccncc2)NC(=O)[C@H](Cc2ccccc2)NC(=O)[C@H](CCCNC(=N)N)NC(=O)[C@H](NCC[S@+]([O-])C[C@@H]2C[C@@H]3c4cccc5[nH]cc(c45)C[C@H]3N(C)C2)CCCCNC(=O)[C@H](Cc2ccc(O)cc2)NC1=O [Compound 11, Dop1[(R)SO]-psi(CH2NH)-cyclo(DLys-Arg-Phe-4Pa1-DTrp-Lys-Thr-Tyr)] | 0.05 | 79.7 ± 21.4 | 2.4 ± 0.4 | 6.4 ± 0.9 | 106 ± 3.5 | 0.09 | 160 ± 22.5 |  |  |  |  |  | 
4 | C[C@@H](O)[C@@H]1NC(=O)[C@H](CCCCN)NC(=O)[C@@H](Cc2c[nH]c3ccccc23)NC(=O)[C@H](Cc2ccncc2)NC(=O)[C@H](Cc2ccccc2)NC(=O)[C@H](CCCNC(=N)N)NC(=O)[C@H](NC[C@H](CCCCNC(=O)C[S+]([O-])C[C@@H]2C[C@@H]3c4cccc5[nH]cc(c45)C[C@H]3N(C)C2)NC(=O)C[S+]([O-])C[C@@H]2C[C@@H]3c4cccc5[nH]cc(c45)C[C@H]3N(C)C2)CCCCNC(=O)[C@H](Cc2ccccc2)NC1=O (stereo partly drawn) [Compound 17, Dop1(SO)-Lys[Dop1(SO)]-psi(CH2NH)-cyclo(DLys-Arg-Phe-4Pal-DTrp-Lys-Thr-Phe)] | 0.08 ± 0.05 | 67.6 ± 18.4 | 10.3 ± 2 | 10.2 ± 2.2 | 96.9 ± 1.2 | 0.86 | 91.4 |  |  |  |  |  | 
5 | C[C@@H](O)[C@@H]1NC(=O)[C@H](CCCCN)NC(=O)[C@@H](Cc2c[nH]c3ccccc23)NC(=O)[C@H](Cc2ccccc2)NC(=O)[C@H](Cc2ccccc2)NC(=O)[C@H](CCCNC(=N)N)NC(=O)[C@H](NCCS(=O)(=O)C[C@@H]2C[C@@H]3c4cccc5[nH]cc(c45)C[C@H]3N(C)C2)CCCCNC(=O)[C@H](Cc2ccc(F)cc2)NC1=O [Compound 10, Dop1(SO2)-psi(CH2NH)-cyclo(DLys-Arg-Phe-Phe-DTrp-Lys-Thr-4FPhe)] | 0.17 ± 0.05 | 56.4 ± 11.2 | 19.4 ± 2 | 24 ± 4.5 | 92.8 ± 4 | 0.16 ± 0.1 | 6.6 |  |  |  |  |  | 
6 | C[C@@H](O)[C@@H]1NC(=O)[C@H](CCCCN)NC(=O)[C@@H](Cc2c[nH]c3ccccc23)NC(=O)[C@H](Cc2ccccc2)NC(=O)[C@H](Cc2ccccc2)NC(=O)[C@H](CCCNC(=N)N)NC(=O)[C@H](NC[C@H](Cc2ccc(O)cc2)NC(=O)C[S+]([O-])C[C@@H]2C[C@@H]3c4cccc5[nH]cc(c45)C[C@H]3N(C)C2)CCCCNC(=O)[C@H](Cc2ccc(F)cc2)NC1=O (stereo partly drawn) [Compound 13, Dop1(SO)-Tyr-psi(CH2NH)-cyclo(DLys-Arg-Phe-Phe-DTrp-Lys-Thr-4FPhe)] | 0.04 ± 0.02 | 32.5 ± 8.9 | 1.6 ± 0.1 | 9.2 ± 2.7 | 93.9 ± 4.5 | 0.23 | 8.6 |  |  |  |  |  | 
7 | C[C@@H](O)[C@@H]1NC(=O)[C@H](CCCCN)NC(=O)[C@@H](Cc2c[nH]c3ccccc23)NC(=O)[C@H](Cc2ccccc2)NC(=O)[C@H](Cc2ccccc2)NC(=O)[C@H](CCCNC(=N)N)NC(=O)[C@H](NC[C@H](Cc2ccc(O)cc2)NC(=O)CSC[C@@H]2C[C@@H]3c4cccc5[nH]cc(c45)C[C@H]3N(C)C2)CCCCNC(=O)[C@H](Cc2ccccc2)NC1=O [Compound 32, Dop1-Tyr-psi(CH2NH)-cyclo(DLys-Arg-Phe-Phe-DTrp-Lys-Thr-Phe)] | 0.28 ± 0.07 | 44 ± 1 | 13.6 ± 3.4 | 35.6 ± 2.4 | 102 ± 12.8 | 1.58 | 5.3 ± 2.9 |  |  |  |  |  | statistically significant improvement in EC50 and/or %Emax
8 | C[C@@H](O)[C@@H]1NC(=O)[C@H](CCCCN)NC(=O)[C@@H](Cc2c[nH]c3ccccc23)NC(=O)[C@H](Cc2ccncc2)NC(=O)[C@H](Cc2ccccc2)NC(=O)[C@H](CCCNC(=N)N)NC(=O)[C@H](N(CCSC[C@@H]2C[C@@H]3c4cccc5[nH]cc(c45)C[C@H]3N(C)C2)CCSC[C@@H]2C[C@@H]3c4cccc5[nH]cc(c45)C[C@H]3N(C)C2)CCCCNC(=O)[C@H](Cc2ccccc2)NC1=O [Compound 29, bis[Dop1-psi(CH2N)]-cyclo(DLys-Arg-Phe-4Pal-DTrp-Lys-Thr-Phe)] (RF[4Pal][dW]KTF; linker N-C via X1) | 0.14 ± 0.02 | 135 ± 66.1 | 12.1 ± 0.7 | 254 ± 111 | 89 ± 4.5 | 2.37 | 26.7 |  |  | statistically significant improvement in EC50 |  |  | 
9 | C[C@@H](O)[C@@H]1NC(=O)[C@H](CCCCN)NC(=O)[C@@H](Cc2c[nH]c3ccccc23)NC(=O)[C@H](Cc2ccccc2)NC(=O)[C@H](Cc2ccccc2)NC(=O)[C@H](CCCNC(=N)N)NC(=O)[C@H](NC[C@H](Cc2ccc(O)cc2)NC(=O)CSC[C@@H]2C[C@@H]3c4cccc5[nH]cc(c45)C[C@H]3N(C)C2)CCCCNC(=O)[C@H](Cc2ccc(O)cc2)NC1=O [Compound 33, Dop1-Tyr-psi(CH2NH)-cyclo(DLys-Arg-Phe-Phe-DTrp-Lys-Thr-Tyr)] | 0.24 ± 0.1 | 15 ± 2.6 | 13.8 ± 5 | 51.8 ± 20.6 | 102 ± 12.5 | 0.82 ± 0.4 | 10.4 ± 3.2 |  |  |  |  |  | statistically significant improvement in EC50 and/or %Emax
10 | C[C@@H](O)[C@@H]1NC(=O)[C@H](CCCCN)NC(=O)[C@@H](Cc2c[nH]c3ccccc23)NC(=O)[C@H](Cc2ccncc2)NC(=O)[C@H](Cc2ccccc2)NC(=O)[C@H](CCCNC(=N)N)NC(=O)[C@H](NCC[S@@+]([O-])C[C@@H]2C[C@@H]3c4cccc5[nH]cc(c45)C[C@H]3N(C)C2)CCCCNC(=O)[C@H](Cc2ccc(O)cc2)NC1=O [Compound 12, Dop1[(S)SO]-psi(CH2NH)-cyclo(DLys-Arg-Phe-4Pal-DTrp-Lys-Thr-Tyr)] | 0.06 ± 0.01 | 255 ± 224 | 4.1 ± 1.4 | 76.3 ± 28.2 | 99.8 ± 6 | 0.74 ± 0.4 | 98.9 ± 2.3 |  |  |  |  |  | 
11 | C[C@@H](O)[C@@H]1NC(=O)[C@H](CCCCN)NC(=O)[C@@H](Cc2c[nH]c3ccccc23)NC(=O)[C@H](Cc2ccccc2)NC(=O)[C@H](Cc2ccccc2)NC(=O)[C@H](CCCNC(=N)N)NC(=O)[C@H](NCC[S+]([O-])C[C@@H]2C[C@@H]3c4cccc5[nH]cc(c45)C[C@H]3N(C)C2)CCCCNC(=O)[C@H](Cc2ccc(F)cc2)NC1=O (stereo partly drawn) [Compound 14, Dop1(SO)-psi(CH2NH)-cyclo(DLys-Arg-Phe-Phe-DTrp-Lys-Thr-4FPhe)] | 0.05 ± 0.01 | 76.5 ± 13.9 | 1.3 ± 0.1 | 8.7 ± 1.7 | 103 ± 2.3 | 0.36 | 6 |  |  |  |  |  | 
12 | C[C@@H](O)[C@@H]1NC(=O)[C@H](CCCCN)NC(=O)[C@@H](Cc2c[nH]c3ccccc23)NC(=O)[C@H](Cc2ccncc2)NC(=O)[C@H](Cc2ccccc2)NC(=O)[C@H](CCCNC(=N)N)NC(=O)[C@H](NCCS(=O)(=O)C[C@@H]2C[C@@H]3c4cccc5[nH]cc(c45)C[C@H]3N(C)C2)CCCCNC(=O)[C@H](Cc2ccc(O)cc2)NC1=O [Compound 20, Dop1(SO2)-psi(CH2NH)-cyclo(DLys-Arg-Phe-4Pal-DTrp-Lys-Thr-Tyr)] |  |  |  |  | 101.5 ± 0.6 | 0.33 |  | 0.02 ± 0.01 | 115 ± 41.3 |  |  | 689 | 

From patent EP2914280B1, “SOMATOSTATIN-DOPAMINE CHIMERIC ANALOGS” (IPSEN PHARMA S.A.S., priority 2012, dated 2014)
